# Measured values reported in patent publication US4877893A, “Process for the preparation of 2-(O-alkyl)-2-thio-1,3,2-oxathiophospholanes” (priority 1987, dated 1989).
# Legend:
# Assay in all cases: Fungicidal effect on infected agar nutrient media, colony diameter
# Format in all cases: cell-based
# [1] = system: Sclerotinia sclerotinia; conditions: 3rd day after treatment, untreated control 41.7
# Procedure: Agar nutrient media (Diameter 70 MM, thickness 10 mm) infected by Sclerotonia sclerotinia suspension are treated with 20 EC formulations prepared according to Example 27 and comprising 1, 10, 100 and 1000 ppm, respectively of the active ingredient of the Formula I. The fungicidal effect of the compositions is evaluated on the 3rd day after treatment by measuring the diameter of the Fungi colonies.
# [2] = system: Alternaria tenuis; conditions: 5th day after treatment, untreated control 36.8
# In short: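 Agar media (70 mm diameter, 10 mm thick) infected with Alternaria tenuis, treated with EC formulations at 1, 10, 100 and 1000 ppm active ingredient. Fungicidal effect read on day 5 after treatment as fungal colony diameter.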
# [3] = system: Penicillium cyclopium; conditions: 7th day after treatment, untreated 26.5
# In short: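 Agar media (70 mm diameter, 10 mm thick) infected with Penicillium cyclopium were treated with EC formulations at 1, 10, 100 and 1000 ppm active ingredient. Fungal colony diameter was measured on day 7 after treatment.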
Structure (SMILES),Diameter of colony (mm) ([1]; 1 ppm),Diameter of colony (mm) ([1]; 10 ppm),Diameter of colony (mm) ([1]; 100 ppm),Diameter of colony (mm) ([1]; 1000 ppm),Diameter of colony (mm) ([2]; 1 ppm),Diameter of colony (mm) ([2]; 10 ppm),Diameter of colony (mm) ([2]; 100 ppm),Diameter of colony (mm) ([2]; 1000 ppm),Diameter of colony (mm) ([3]; 1 ppm),Diameter of colony (mm) ([3]; 10 ppm),Diameter of colony (mm) ([3]; 100 ppm),Diameter of colony (mm) ([3]; 1000 ppm)
"CC(C)COP1(=S)OCCS1 (stereo not drawn) [Compound 50, 2-(0-2'-methyl-n-propyl)-2-thio-1,3,2-oxathiophospholane]",36.5 mm,29.7 mm,3.7 mm,0 mm,35.2 mm,23.8 mm,5.3 mm,0 mm,25.1 mm,19.2 mm,7.7 mm,0 mm
"CCCOP1(=S)OCC(CC)S1 (stereo not drawn) [Compound 51, 2-(0-n-propyl)-2-thio-4-ethyl-1,3,2-oxathiophospholane]",34.3 mm,30.0 mm,3.2 mm,0 mm,35.1 mm,24.3 mm,6.9 mm,0 mm,24.9 mm,18.7 mm,8.2 mm,0 mm
"CC(C)COP1(=S)OC(C)CS1 (stereo not drawn) [Compound 52, 2-(0-2'-methyl-n-propyI)-2-thio-5-methyl-1,3,2-oxathiophospholane]",37.1 mm,28.6 mm,3.0 mm,0 mm,34.8 mm,26.2 mm,4.7 mm,0 mm,26.2 mm,20.0 mm,8.8 mm,0 mm
"CCC(C)OP1(=S)OC(C)C(C)S1 (stereo not drawn) [Compound 53, 2-(0-1'-methyl-n-propyl)-2-thio-4,5-dimethyl1,3,2-oxathiophospholane]",35.8 mm,30.0 mm,3.8 mm,0 mm,33.9 mm,25.4 mm,6.6 mm,0 mm,24.8 mm,19.2 mm,7.6 mm,0 mm
"CC(C)C(C)OP1(=S)OC(C)C(C)S1 (stereo not drawn) [Compound 54, 2-(0-1',2'-dimethyl-n-propyl)-2-thio-4,5-dimethyl1,3,2-oxathiophospholane]",34.9 mm,29.0 mm,4.1 mm,0 mm,34.7 mm,24.6 mm,7.2 mm,0 mm,25.2 mm,18.8 mm,7.9 mm,0 mm
CCOP1(=S)OCCS1 (stereo not drawn) [Compound 55],33.1 mm,28.2 mm,0 mm,0 mm,32.4 mm,23.5 mm,5.2 mm,0 mm,21.9 mm,18.1 mm,8.0 mm,0 mm
S=P1(OCCS)OCCS1 (stereo not drawn) [Compound 56],40.2 mm,31.5 mm,1.2 mm,0 mm,32.8 mm,22.1 mm,6.0 mm,0 mm,24.6 mm,18.1 mm,8.8 mm,0 mm
CC(C)OP1(=S)OCCS1 (stereo not drawn) [Compound 57],37.8 mm,25.9 mm,0 mm,0 mm,31.7 mm,26.0 mm,7.1 mm,0 mm,18.7 mm,20.0 mm,6.2 mm,0 mm
